For 17 compounds, GI50 and TGI results are on record in PubChem BioAssay (NCI).

Molecules are shown by their SMILES. Values joined by “and” are separate entries in the source; they are usually repeats but may differ in a detail not shown here. Equal values may be shown once.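 Following 48 hours of exposure in 96-well plates, responses at five concentrations were used to interpolate endpoints linearly. GI50 = concentration required for 50% inhibition of growth. TGI denotes the concentration required for complete inhibition of growth.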

Common to all, as to assay: NCI tumour cell line growth inhibition, 48 h
Assay [1] deals with SNB-75 CNS.
Assay [2] has as its system HT29 colon.
Assay [3] concerns TK-10 renal.
Assay [4] has as its system CCRF-CEM leukemia.
Assay [5] deals with KM12 colon.
For assay [6], the system named is NCI-H522 lung.
Assay [7] concerns ACHN renal.
Assay [8] has as its system HCC-2998 colon.
The subject of assay [9] is HOP-62 NSCLC.
The test system of assay [10] is HCT-116 colon.

In the case of `COc1cccc2cc(N(C)c3nc(C)nc4ccsc34)ccc12`, the GI50 is less than 0.01 µM in assay [1]; less than 0.01 µM in assay [2]; 1.87 µM in assay [3]; less than 0.01 µM in [4]; less than 0.01 µM in assay [5]; less than 0.01 µM in [6]. Also, the GI50 in assay [7], in assay [8] and in [10] was less than 0.01 µM each time. The TGI was 5.3 µM in assay [1]; 11.6 µM in [2]; 24.1 µM in [3]; more than 100 µM in assay [4]; 11.4 µM in [5]; 13.3 µM in assay [7]. In addition, the TGI turned out to be 8.01 µM in [8], 18.9 µM in [9] and 10.5 µM in assay [10].
For the compound `COC(=O)NN=C1C(C)(C)C(=NNC(=O)OC)C1(C)C`, the TGI is more than 100 µM in assay [1]; more than 53.6 µM in [2]; more than 100 µM in assay [3]; more than 72.3 µM in assay [4]; more than 100 µM in [5]; more than 100 µM in assay [6]. The TGI is more than 100 µM in [7], more than 100 µM in assay [8], more than 100 µM in assay [9] and more than 62.5 µM in assay [10].
For `O=C(Nc1ccc([N+](=O)[O-])cc1)c1cc2ccccc2cc1O`, the GI50 in [1] was 0.538 µM; in [2], 3.52 µM; in [3] it was 0.402 µM; in assay [4] it was 0.754 µM; in assay [5], 0.698 µM; in assay [6], 0.268 µM. In addition, the GI50 in assay [7] was 0.38 µM; in [8] it was 1.25 µM; in assay [9] it was 0.939 µM; in assay [10], 0.319 µM. Moreover, the TGI is 4.07 µM in assay [1]; more than 29.8 µM in assay [2]; 6.82 µM in [3]; more than 100 µM in [4]; 2.68 µM in assay [5]; 1.61 µM in [6]. The TGI in assay [7] amounted to 16.8 µM; in assay [8], 4.8 µM; in assay [9] it was 8.69 µM; in assay [10], 1.32 µM.
Take `Cc1sc2c(c1C)C(c1ccc(Cl)cc1)=N[C@@H](CC(=O)Nc1ccc(O)cc1)c1nnc(C)n1-2`: the GI50 in [1] is 0.0297 µM; in [2], 0.197 µM; in assay [3], 0.0941 µM; in [4] it was 0.317 µM; in assay [5], 4.52 µM; in assay [6], 0.262 µM. The GI50 is 1.28 µM in assay [7], 2.48 µM in assay [8], 0.18 µM in assay [9] and 0.499 µM in assay [10]. For the same compound, the TGI is 8.58 µM in assay [1]; 18.9 µM in assay [2]; 19 µM in assay [3]; 31.4 µM in [4]; 29.6 µM in assay [5]; 16.1 µM in assay [6]. The TGI in assay [7] stood at 29.9 µM; in [8] it was 21.8 µM; in assay [9] it was 17.2 µM; in assay [10] it was 17.8 µM.
Turning to `OCCCCC#Cc1ccccc1C#Cc1cccs1`, the GI50 is 11.8 µM in [1]; 12 µM in assay [2]; 25.3 µM in assay [3]; 2.29 µM in assay [4]; 16.6 µM in assay [5]; 18.5 µM in assay [6]. In addition, the GI50 in [7] is 15.5 µM; in assay [8], 18.3 µM; in [9] it was 13 µM; in assay [10] it was 15.2 µM. Moreover, the TGI in assay [1] worked out at 24.8 µM; in assay [2], 27.6 µM; in assay [3], 52.9 µM; in assay [4], 11.5 µM; in [5], 48 µM; in assay [6], 35.6 µM. Further, the TGI in assay [7] came out at 28.8 µM; in [8], 33.7 µM; in [9], 26.5 µM; in assay [10] it was 31.4 µM.
Turning to `CCOC(CN(C)C(=O)OCC(Cl)(Cl)Cl)OCC`, the TGI in assay [1], in assay [2], in [3], in assay [4], in assay [5] and in assay [6] was more than 100 µM throughout. The TGI in assay [7], in assay [8], in assay [9] and in assay [10] was more than 100 µM each time.
With `CN(C)C(=S)/N=c1\ssc(=S)n1Cc1ccccn1`, the TGI in assay [1] was more than 56.6 µM; in assay [2] it was more than 100 µM; in [3], more than 100 µM; in assay [4], more than 26.2 µM; in assay [5] it was more than 48 µM; in [6] it was 4.17 µM. The TGI in assay [7], in [8], in assay [9] and in [10] was more than 100 µM throughout.
As to `CN(C)CCN1C(=O)c2cccc3c(-c4ccc5ncn(C6CCCCC6)c5c4)ccc(c23)C1=O`, the GI50 is 1.78 µM in assay [1]; 0.938 µM in [2]; 2.14 µM in assay [3]; 1.84 µM in assay [4]; 2.24 µM in [5]; 1.85 µM in assay [6]. The GI50 is 0.539 µM in assay [7], 1.82 µM in [8], 1.69 µM in [9] and 0.422 µM in assay [10]. Also, the TGI was 10.8 µM in assay [1]; 8.11 µM in [2]; 12.6 µM in assay [3]; 7.22 µM in [4]; 13.2 µM in assay [5]; 5.24 µM in assay [6]. Also, the TGI was 2.36 µM in [7], 4.3 µM in [8], 6.75 µM in assay [9] and 10.9 µM in [10].
As for `COc1cc(/C=N/O)nc(-c2ccccn2)c1`, the GI50 is 0.5 µM in [1]; 0.454 µM in assay [2]; 0.325 µM in [3]; 0.207 µM in [4]; 0.385 µM in assay [5]; 0.565 µM in [6]. Besides, the GI50 in assay [7] is 0.241 µM; in assay [8], 0.341 µM; in assay [9], 0.358 µM; in assay [10], 0.351 µM. Moreover, the TGI in assay [2] was more than 100 µM; in [3], more than 100 µM; in [4], more than 33.2 µM; in assay [5], more than 100 µM; in assay [6], more than 100 µM; in assay [7], 12.6 µM. Further, the TGI in assay [8] was more than 100 µM; in assay [9], more than 69.7 µM; in assay [10], more than 100 µM.
For `CCc1ccccc1NC(=O)C1=C(C)NC(C)=C(C(=O)Nc2ccccc2CC)C1c1ccc(NC(C)=O)cc1`, the TGI in assay [1] was more than 100 µM; in assay [2], more than 100 µM; in [3], more than 100 µM; in assay [4], 65.8 µM; in [5], more than 100 µM; in assay [6] it was 71.1 µM. For the same compound, the TGI in assay [7] is more than 100 µM; in assay [8], 48.6 µM; in assay [9] it was 92.8 µM; in assay [10], more than 100 µM.
`Oc1cccc2nc3cc(CN4CCOCC4)c(CN4CCOCC4)cc3nc12`: the TGI in [1], in assay [2], in assay [3], in [4], in assay [5] and in assay [6] was more than 100 µM throughout. For the same compound, the TGI in [7], in assay [8], in assay [9] and in assay [10] was more than 100 µM each time.
Regarding `CCCCc1oc2ccccc2c1C(=O)c1cc(I)c(OCCN(CC)CC)c(I)c1`, the GI50 in [1] was 1.92 µM; in [2], 1.97 µM; in assay [3], 5.12 µM; in assay [4], 1.82 µM; in assay [5], 1.84 µM; in assay [6] it was 1.79 µM. Also, the GI50 in [7] is 4.14 µM; in [8], 1.69 µM; in [9], 2.36 µM; in assay [10], 1.82 µM. Also, the TGI is 10.9 µM and 22.9 µM in assay [1]; 5.01 µM and 8.27 µM in assay [2]; 17.8 µM in assay [3]; 4.35 µM and 12 µM in assay [4]; 3.61 µM and 12.3 µM in assay [5]; 3.48 µM and 12.3 µM in [6]. Moreover, the TGI in [7] was 15.6 µM; in [8], 3.23 µM and 7.89 µM; in assay [9], 6.25 µM and 30.7 µM; in assay [10], 3.88 µM and 9.07 µM.
As for `COc1ccc2nc(C3=CN(C4OC(CO)C(O)C(O)C4O)C4C=CC=CC34)sc2c1` (configuration not stated), the GI50 is 55 µM in [1]; 59.9 µM in assay [2]; 27.3 µM in assay [3]; 42.4 µM in [4]; 24.1 µM in assay [5]; 24 µM in assay [6]. Moreover, the GI50 was 19 µM in assay [7], 22.7 µM in assay [8], 22.6 µM in assay [9] and 22.7 µM in assay [10]. Besides, the TGI is more than 100 µM in assay [1]; more than 100 µM in assay [2]; 51.5 µM in assay [3]; more than 100 µM in [4]; 75.7 µM in assay [5]; 76.5 µM in assay [6]. For the same compound, the TGI in assay [7] came out at 46.1 µM; in assay [8], 53.1 µM; in assay [9], 56.9 µM; in assay [10], 81.7 µM.
For `O=C1/C(=C/c2ccc(C(F)(F)F)cc2)COc2ccc(O)cc21`, the GI50 in assay [1] was 13.9 µM; in [2] it was 2.03 µM; in [3] it was 3.7 µM; in assay [4], 0.228 µM; in [5], 1.75 µM; in assay [6], 1.59 µM. Besides, the GI50 in [7] was 1.84 µM; in [8], 1.57 µM; in assay [9], 12.8 µM; in assay [10] it was 1.77 µM. The TGI in assay [1] was determined as 27.8 µM; in [2], 4.32 µM; in assay [3] it was 14.3 µM; in assay [4] it was 1.42 µM; in [5], 3.41 µM; in assay [6] it was 3.69 µM. The TGI is 3.53 µM in assay [7], 2.93 µM in assay [8], 25.4 µM in assay [9] and 3.42 µM in assay [10].
For the compound `CCCCCCCCCCCCCCCCCCOCC1(COP(=O)([O-])OCC[N+](C)(C)C)CCCO1` (configuration not stated), the TGI worked out at 18.3 µM in assay [1]; 12.4 µM in assay [2]; 3.54 µM in assay [3]; 11.6 µM in assay [4]; 3.33 µM in assay [5]; 6.23 µM in [6]. In addition, the TGI was 19.4 µM in [7], 4.68 µM in [8], 9.45 µM in assay [9] and 22 µM in [10].
Turning to `O=C(Nn1c2c(sc1=NC1CC1)C(=O)c1ccccc1C2=O)c1cc2ccc1CCc1ccc(cc1)CC2`, the GI50 in assay [1] was 1.32 µM; in assay [2] it was 3.32 µM; in [3], 18.4 µM; in assay [4], 2.53 µM; in [5] it was 3.12 µM; in assay [6] it was 1.6 µM. Also, the GI50 is 1.39 µM in [7], 2.34 µM in assay [8], 4.28 µM in assay [9] and 1.94 µM in assay [10]. In addition, the TGI in assay [1] is 6.04 µM; in [2], 28.7 µM; in [3] it was 34.7 µM; in assay [4], more than 100 µM; in [5], 13.7 µM; in assay [6], 4.69 µM. Also, the TGI in assay [7] came to 3.03 µM; in [8], 6.67 µM; in [9] it was 17.2 µM; in [10] it was 6.45 µM.
As for `CCOC(=O)c1cn2ncnc(Oc3ccc(NC(=O)NCCN(CC)CC)c(Cl)c3)c2c1C`, the GI50 in assay [1] is 3.14 µM; in assay [2] it was 2.26 µM; in assay [3], 2.91 µM; in [4], 2.33 µM; in [5], 10.8 µM; in assay [6] it was 2.3 µM. Besides, the GI50 in [7] was 2.31 µM; in assay [8], 2.01 µM; in [9], 12 µM; in assay [10], 2 µM. Moreover, the TGI in [1] was determined as 31.5 µM; in assay [2], 5.45 µM; in assay [3], 11.1 µM; in [4], 6.73 µM; in assay [5], 49.5 µM; in [6], 5.92 µM. Also, the TGI came to 5.54 µM in assay [7], 4.68 µM in assay [8], 29.5 µM in assay [9] and 4.75 µM in assay [10].
